Measurements: paper PMC5679629, “Flavin-containing monooxygenase 3 (FMO3) role in busulphan metabolic pathway” (PLoS ONE, 2017)

How the values were obtained:
Experiment in all cases: THT disappearance with recombinant cDNA-expressed enzyme microsomes
Type in all cases: in vitro ADME
Conditions in all cases: 25μM THT, 35pmol CYP/mL
CYP2E1 = molecular target: T1, CYP2E1 (Homo sapiens, UniProt P05181)
T1 construct: purchased BD Biosciences; host or cells: baculovirus infected insect cells
Experimental: (§1) To identify the enzymes involved in Bu metabolism, 11 microsomal batches (BD Biosciences, Stockholm, Sweden), each containing a separate cDNA-expressed enzyme, were incubated with 25μM THT. The microsomes contained FMO3, CYP1A1, CYP1A2, CYP2B6, CYP2C8, CYP2C9, CYP2C19, CYP2D6, CYP2E1, CYP3A4 or CYP4A11. Time curves (0, 5, 15, 30 and 60min) were performed at a concentration of 0.35mg protein /mL for FMO3 and 35pmol CYP/mL for the CYP enzymes. The recombinant enzymes were produced from human cDNA expressing each of them using baculovirus expression system. Baculovirus infected insect cells were used to prepare these microsomes.
(§2) Incubations were performed in triplicate and negative controls (excluding NADPH, microsomes, THT or by terminating the incubations before the addition of NADPH) were run in parallel.
(§3) To measure THT and the secondary metabolite, sulfolane, the reactions were terminated by adding dichloromethane. Samples (180μL) were added to 10μM nicotine (20μL, Merck, Hoherbrunn, Germany), used as an internal standard, before extraction. The matrix was extracted by liquid-liquid extraction with dichloromethane (equal volumes, 200μL) after 30 sec of high speed vortexing. After extraction and centrifugation at 16000 g for 10 min, the organic phase was transferred into GC-MS tubes. […] Samples (180μL) were added to 10 μM of 3-methylsulfolane (20μL, TCI, Tokyo, Japan), used as an internal standard. The matrix was lyophilized (< 1 mbar at 40°C under N2 stream) to dryness, the residue was dissolved in 10 μL water and 200 μL of ethyl acetate was added for extraction. Samples were vortexed for 30 sec at high speed and centrifuged at 16000 g for 10 min. The organic phase was transferred to GC-MS tubes.
(§4) Concentrations of THT and its metabolites were measured using GC-MS [18] after validation for use with microsomal incubations according to the international guidelines.

CYP3A4 = molecular target: T2, CYP3A4 (Homo sapiens, UniProt P08684)
T2 construct: purchased BD Biosciences; host or cells: baculovirus infected insect cells
Experimental: as §1, §2, §3, §4

CYP4A11 = molecular target: T3, CYP4A11 (Homo sapiens, UniProt Q02928)
T3 construct: purchased BD Biosciences; host or cells: baculovirus infected insect cells
T3 sequence (Q02928 5-519): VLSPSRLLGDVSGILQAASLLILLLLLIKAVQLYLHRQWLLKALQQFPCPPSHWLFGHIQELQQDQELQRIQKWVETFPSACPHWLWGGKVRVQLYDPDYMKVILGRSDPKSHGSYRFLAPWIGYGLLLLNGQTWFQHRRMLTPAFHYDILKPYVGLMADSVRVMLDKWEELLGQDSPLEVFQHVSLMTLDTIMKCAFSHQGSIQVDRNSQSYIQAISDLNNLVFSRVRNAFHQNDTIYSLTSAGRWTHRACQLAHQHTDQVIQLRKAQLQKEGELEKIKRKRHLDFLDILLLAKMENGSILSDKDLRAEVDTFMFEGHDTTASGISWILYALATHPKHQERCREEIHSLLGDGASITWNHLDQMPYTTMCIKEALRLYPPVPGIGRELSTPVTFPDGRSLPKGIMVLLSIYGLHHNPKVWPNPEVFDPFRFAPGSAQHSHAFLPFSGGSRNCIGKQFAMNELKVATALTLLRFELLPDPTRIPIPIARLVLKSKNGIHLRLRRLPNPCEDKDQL
Experimental: as §1, §2, §3, §4

CYP1A1 = molecular target: T4, CYP1A1 (Homo sapiens, UniProt P04798)
T4 construct: purchased BD Biosciences; host or cells: baculovirus infected insect cells
T4 sequence (P04798 1-512): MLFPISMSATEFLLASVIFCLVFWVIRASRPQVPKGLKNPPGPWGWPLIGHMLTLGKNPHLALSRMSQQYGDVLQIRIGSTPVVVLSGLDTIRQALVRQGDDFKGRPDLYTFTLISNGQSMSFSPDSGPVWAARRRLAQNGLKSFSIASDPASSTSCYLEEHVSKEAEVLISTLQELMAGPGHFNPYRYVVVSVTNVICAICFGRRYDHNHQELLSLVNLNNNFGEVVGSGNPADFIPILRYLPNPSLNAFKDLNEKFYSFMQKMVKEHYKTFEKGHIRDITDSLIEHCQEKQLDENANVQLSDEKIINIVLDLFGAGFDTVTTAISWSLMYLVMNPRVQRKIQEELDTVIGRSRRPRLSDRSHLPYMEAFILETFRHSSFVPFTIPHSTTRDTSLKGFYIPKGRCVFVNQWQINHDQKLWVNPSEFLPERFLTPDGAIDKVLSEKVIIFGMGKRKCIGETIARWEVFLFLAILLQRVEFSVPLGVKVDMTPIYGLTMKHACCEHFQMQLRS
Experimental: as §1, §2, §3, §4

CYP2C19 = molecular target: T5, CYP2C19 (Homo sapiens, UniProt P33261)
T5 construct: purchased BD Biosciences; host or cells: baculovirus infected insect cells
Experimental: as §1, §2, §3, §4

CYP2C8 = molecular target: T6, CYP2C8 (Homo sapiens, UniProt P10632)
T6 construct: purchased BD Biosciences; host or cells: baculovirus infected insect cells
T6 sequence (P10632 1-490): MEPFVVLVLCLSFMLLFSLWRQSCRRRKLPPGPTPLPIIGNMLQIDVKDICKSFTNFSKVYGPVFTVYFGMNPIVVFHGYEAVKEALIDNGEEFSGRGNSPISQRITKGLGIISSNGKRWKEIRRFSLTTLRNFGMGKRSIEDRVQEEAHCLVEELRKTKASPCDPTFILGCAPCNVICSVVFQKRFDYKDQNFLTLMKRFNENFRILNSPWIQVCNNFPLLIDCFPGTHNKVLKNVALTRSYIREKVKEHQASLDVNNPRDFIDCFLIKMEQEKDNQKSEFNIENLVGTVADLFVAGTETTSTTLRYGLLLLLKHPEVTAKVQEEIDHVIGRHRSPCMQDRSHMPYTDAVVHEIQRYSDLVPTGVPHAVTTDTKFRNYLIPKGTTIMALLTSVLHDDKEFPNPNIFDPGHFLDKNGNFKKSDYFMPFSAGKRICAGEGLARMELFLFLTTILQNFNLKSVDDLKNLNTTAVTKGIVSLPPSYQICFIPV
Experimental: as §1, §2, §3, §4

T1 sequence (P05181 whole entry): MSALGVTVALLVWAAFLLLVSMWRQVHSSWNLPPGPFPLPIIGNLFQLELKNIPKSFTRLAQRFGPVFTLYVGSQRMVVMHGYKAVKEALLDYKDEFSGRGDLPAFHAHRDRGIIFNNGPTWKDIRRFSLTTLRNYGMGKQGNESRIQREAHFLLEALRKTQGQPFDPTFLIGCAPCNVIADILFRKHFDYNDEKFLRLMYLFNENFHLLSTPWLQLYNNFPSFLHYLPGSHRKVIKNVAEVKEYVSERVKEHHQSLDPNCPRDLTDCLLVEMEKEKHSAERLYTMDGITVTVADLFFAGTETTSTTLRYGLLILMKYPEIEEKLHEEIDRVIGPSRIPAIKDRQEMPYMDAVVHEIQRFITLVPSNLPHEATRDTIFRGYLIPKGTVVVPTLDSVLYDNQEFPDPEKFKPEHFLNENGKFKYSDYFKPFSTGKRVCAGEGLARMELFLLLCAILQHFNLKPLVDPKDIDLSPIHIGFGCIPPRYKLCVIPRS
T2 sequence (P08684 whole entry): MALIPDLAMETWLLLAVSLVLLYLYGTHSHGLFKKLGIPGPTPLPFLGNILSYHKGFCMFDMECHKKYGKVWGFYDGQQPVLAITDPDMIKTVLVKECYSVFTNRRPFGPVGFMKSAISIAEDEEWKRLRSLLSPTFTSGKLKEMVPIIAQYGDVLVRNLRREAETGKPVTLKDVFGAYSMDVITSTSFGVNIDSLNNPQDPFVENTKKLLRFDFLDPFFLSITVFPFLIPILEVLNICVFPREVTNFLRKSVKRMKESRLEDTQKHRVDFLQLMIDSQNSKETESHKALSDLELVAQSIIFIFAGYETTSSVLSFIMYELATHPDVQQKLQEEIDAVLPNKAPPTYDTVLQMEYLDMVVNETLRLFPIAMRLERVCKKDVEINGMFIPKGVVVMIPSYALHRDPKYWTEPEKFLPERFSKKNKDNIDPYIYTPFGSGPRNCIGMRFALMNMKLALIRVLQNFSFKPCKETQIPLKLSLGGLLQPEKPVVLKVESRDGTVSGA
T5 sequence (P33261 whole entry): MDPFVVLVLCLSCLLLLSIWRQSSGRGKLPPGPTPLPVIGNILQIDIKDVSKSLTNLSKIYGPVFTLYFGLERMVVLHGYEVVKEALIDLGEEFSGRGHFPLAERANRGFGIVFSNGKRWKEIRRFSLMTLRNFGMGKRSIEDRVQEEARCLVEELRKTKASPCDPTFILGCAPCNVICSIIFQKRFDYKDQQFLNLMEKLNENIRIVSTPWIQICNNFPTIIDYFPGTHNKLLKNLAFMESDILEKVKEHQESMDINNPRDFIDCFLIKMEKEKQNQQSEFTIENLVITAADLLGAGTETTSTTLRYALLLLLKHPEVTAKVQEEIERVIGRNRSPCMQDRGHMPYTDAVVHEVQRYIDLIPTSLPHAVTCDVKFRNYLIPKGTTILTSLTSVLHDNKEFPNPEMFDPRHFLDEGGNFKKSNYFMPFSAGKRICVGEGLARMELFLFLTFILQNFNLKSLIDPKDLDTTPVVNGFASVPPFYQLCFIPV

C1CCSC1 [THT, tetrahydrothiophene]
v0 (CYP2E1): 1.41 nmol/min/mL | v0/CYP (CYP2E1): 0.04 nmol/min/pmol CYP | v0 (CYP3A4): 3.66 nmol/min/mL | v0/CYP (CYP3A4): 0.11 nmol/min/pmol CYP | v0 (CYP4A11): 2.52 nmol/min/mL | v0/CYP (CYP4A11): 0.07 nmol/min/pmol CYP | v0 (CYP1A1): 1.68 nmol/min/mL | v0/CYP (CYP1A1): 0.05 nmol/min/pmol CYP | v0 (CYP2C19): 1.51 nmol/min/mL | v0/CYP (CYP2C19): 0.04 nmol/min/pmol CYP | v0 (CYP2C8): 2.45 nmol/min/mL | v0/CYP (CYP2C8): 0.07 nmol/min/pmol CYP
